From the supplement of paper PMC3068080

Assays:
TGFBR2 mRNA [1] = test: remaining TGFBR2 mRNA relative to control siRNA (off-target knock-down) (fraction of control); quantification method: branched DNA; higher = less knock-down
Protocol: (§1)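 Screen-hit siRNA duplexes (19-mer plus 3' dTdT overhang) were transiently transfected into HaCaT cells in 12-well plates. After 48 h, TGFBR1 and TGFBR2 mRNA were quantified by branched DNA assay (QuantiGene, normalised to HPRT1) or by SYBR qPCR (normalised to HPRT1/SMAD4). Values are the remaining mRNA relative to control-siRNA-transfected cells; 1-2 biological replicates.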

TGFBR1 mRNA [2] = test: remaining TGFBR1 mRNA relative to control siRNA (off-target knock-down) (fraction of control); quantification method: branched DNA; higher = less knock-down
Protocol: as §1

TGFBR1 mRNA [3] = test: remaining TGFBR1 mRNA relative to control siRNA (off-target knock-down) (fraction of control); quantification method: branched DNA (R1), qPCR (R2); higher = less knock-down
Protocol: as §1

TGFBR2 mRNA [4] = test: remaining TGFBR2 mRNA relative to control siRNA (off-target knock-down) (fraction of control); quantification method: branched DNA (R1), qPCR (R2); higher = less knock-down
Protocol: as §1

AGCGGUGCGUUUCAGGCUGTT was tested, and the “remaining TGFBR2 mRNA” value (TGFBR2 mRNA [1]) was 0.7 and the “remaining TGFBR1 mRNA” value (TGFBR1 mRNA [2]) was 1.06.

CACUUCCCGGAUACUCAGATT was tested, and the “remaining TGFBR2 mRNA” value (TGFBR2 mRNA [1]) was 0.33 and the “remaining TGFBR1 mRNA” value (TGFBR1 mRNA [2]) was 0.96.

For AGGUCAUCACGUACUUUUUTT, the “remaining TGFBR2 mRNA” value (TGFBR2 mRNA [1]) was 1.09 and the “remaining TGFBR1 mRNA” value (TGFBR1 mRNA [2]) was 0.16.

With UUCCCUGCUACUGUUGCUUTT the “remaining TGFBR2 mRNA” value (TGFBR2 mRNA [1]) was 0.72 and the “remaining TGFBR1 mRNA” value (TGFBR1 mRNA [2]) was 0.84.

In the case of UCAAGUGCAUCUCCACAGCTT, the “remaining TGFBR2 mRNA” value (TGFBR2 mRNA [1]) is reported as 0.23 and the “remaining TGFBR1 mRNA” value (TGFBR1 mRNA [2]) is reported as 1.29.

In the case of AUGGUGUUUGCAAGCUCCUTT, the “remaining TGFBR2 mRNA” value (TGFBR2 mRNA [1]) is reported as 0.36 and the “remaining TGFBR1 mRNA” value (TGFBR1 mRNA [2]) is reported as 1.

AUAAGACAAGUGGUCGGGGTT was tested, and the “remaining TGFBR2 mRNA” value (TGFBR2 mRNA [1]) was 0.94 and the “remaining TGFBR1 mRNA” value (TGFBR1 mRNA [2]) was 0.52.

AUGGAGUAGCAUCACUCUCTT was tested, and the “remaining TGFBR2 mRNA” value (TGFBR2 mRNA [1]) was 0.33 and the “remaining TGFBR1 mRNA” value (TGFBR1 mRNA [2]) was 1.1.

In the case of UGUAGUGAAUUCCAAAGAGTT, the “remaining TGFBR2 mRNA” value (TGFBR2 mRNA [1]) is reported as 0.41 and the “remaining TGFBR1 mRNA” value (TGFBR1 mRNA [2]) is reported as 0.47.

In the case of UUUCAGCAAUACAAGCCCGTT, the “remaining TGFBR2 mRNA” value (TGFBR2 mRNA [1]) is reported as 0.68 and the “remaining TGFBR1 mRNA” value (TGFBR1 mRNA [2]) is reported as 0.39.

UCCUUGGUCUCAUCUGCCUTT was tested, and the “remaining TGFBR2 mRNA” value (TGFBR2 mRNA [1]) was 0.43 and the “remaining TGFBR1 mRNA” value (TGFBR1 mRNA [2]) was 1.05.

CUUGGUACAGCACAUGGUUTT was tested, and the “remaining TGFBR2 mRNA” value (TGFBR2 mRNA [1]) was 0.82 and the “remaining TGFBR1 mRNA” value (TGFBR1 mRNA [2]) was 0.55.

For AGUUCUCUCAAUUGCUUACTT, the “remaining TGFBR2 mRNA” value (TGFBR2 mRNA [1]) was 0.54 and the “remaining TGFBR1 mRNA” value (TGFBR1 mRNA [2]) was 0.92.

With UGCUUAUCUCAUCUGAAGCTT the “remaining TGFBR2 mRNA” value (TGFBR2 mRNA [1]) was 0.28 and the “remaining TGFBR1 mRNA” value (TGFBR1 mRNA [2]) was 0.93.

In the case of UUGCAAGCCCAGAUCAGACTT, the “remaining TGFBR2 mRNA” value (TGFBR2 mRNA [1]) is reported as 0.74 and the “remaining TGFBR1 mRNA” value (TGFBR1 mRNA [2]) is reported as 0.92.

For UUCUUUGGAGAGUCCGGUCTT, the “remaining TGFBR2 mRNA” value (TGFBR2 mRNA [1]) was 0.3 and the “remaining TGFBR1 mRNA” value (TGFBR1 mRNA [2]) was 0.88.

UAUAACUCUCAGGGGAUAUTT was tested, and the “remaining TGFBR2 mRNA” value (TGFBR2 mRNA [1]) was 0.4 and the “remaining TGFBR1 mRNA” value (TGFBR1 mRNA [2]) was 1.07.

With AAUCAGGGCGGAGUAGGUGTT the “remaining TGFBR2 mRNA” value (TGFBR2 mRNA [1]) was 0.91 and the “remaining TGFBR1 mRNA” value (TGFBR1 mRNA [2]) was 1.21.

GGGUUUUCCCAGUCACGACTT was tested, and the “remaining TGFBR2 mRNA” value (TGFBR2 mRNA [1]) was 0.54 and the “remaining TGFBR1 mRNA” value (TGFBR1 mRNA [2]) was 0.91.

AUCCUUGGCCAGUUUGGUCTT was tested, and the “remaining TGFBR2 mRNA” value (TGFBR2 mRNA [1]) was 0.15 and the “remaining TGFBR1 mRNA” value (TGFBR1 mRNA [2]) was 1.19.

With ACUUUGGUUUCGGUGCAGCTT the “remaining TGFBR2 mRNA” value (TGFBR2 mRNA [1]) was 0.23 and the “remaining TGFBR1 mRNA” value (TGFBR1 mRNA [2]) was 0.63.

UCCAGCUGCAUUCCUCGCUTT was tested, and the “remaining TGFBR2 mRNA” value (TGFBR2 mRNA [1]) was 0.35 and the “remaining TGFBR1 mRNA” value (TGFBR1 mRNA [2]) was 0.75.

For UCACCUUGCAGGAAGGAAGTT, the “remaining TGFBR2 mRNA” value (TGFBR2 mRNA [1]) was 0.71 and the “remaining TGFBR1 mRNA” value (TGFBR1 mRNA [2]) was 1.26.

For AUAUGUAAGACCUUCCUUCTT, the “remaining TGFBR2 mRNA” value (TGFBR2 mRNA [1]) was 0.25 and the “remaining TGFBR1 mRNA” value (TGFBR1 mRNA [2]) was 0.38.

In the case of UCUGGUCUCAGCCAUUGAATT, the “remaining TGFBR2 mRNA” value (TGFBR2 mRNA [1]) is reported as 1.08 and the “remaining TGFBR1 mRNA” value (TGFBR1 mRNA [2]) is reported as 0.26.

For AGACUGCAAAUAUUCCUGATT, the “remaining TGFBR2 mRNA” value (TGFBR2 mRNA [1]) was 0.49 and the “remaining TGFBR1 mRNA” value (TGFBR1 mRNA [2]) was 1.31.

UCAAGCCCAGAGGUGUCAUTT was tested, and the “remaining TGFBR2 mRNA” value (TGFBR2 mRNA [1]) was 1 and the “remaining TGFBR1 mRNA” value (TGFBR1 mRNA [2]) was 1.24.

UCUGCAACGUAGAGGUUAUTT was tested, and the “remaining TGFBR2 mRNA” value (TGFBR2 mRNA [1]) was 0.79 and the “remaining TGFBR1 mRNA” value (TGFBR1 mRNA [2]) was 0.22.

For AGCCUCUGGAGAAUCUCCUTT, the “remaining TGFBR2 mRNA” value (TGFBR2 mRNA [1]) was 0.6 and the “remaining TGFBR1 mRNA” value (TGFBR1 mRNA [2]) was 1.04.

For AGGCUAUAAGCUCGCCUACTT, the “remaining TGFBR2 mRNA” value (TGFBR2 mRNA [1]) was 0.25 and the “remaining TGFBR1 mRNA” value (TGFBR1 mRNA [2]) was 0.84.

For AUUGAAGCCACCAUUCUCCTT, the “remaining TGFBR2 mRNA” value (TGFBR2 mRNA [1]) was 0.94 and the “remaining TGFBR1 mRNA” value (TGFBR1 mRNA [2]) was 0.23.

In the case of AAAAGGCCUUCAAGCUGUUTT, the “remaining TGFBR2 mRNA” value (TGFBR2 mRNA [1]) is reported as 0.41 and the “remaining TGFBR1 mRNA” value (TGFBR1 mRNA [2]) is reported as 0.56.

In the case of UCUCGCUGACGAAGCAGUATT, the “remaining TGFBR1 mRNA” value (TGFBR1 mRNA [3]) is reported as 1.1 and the “remaining TGFBR2 mRNA” value (TGFBR2 mRNA [4]) is reported as 0.75.

For GAUGGACUGCAUACAUUGGTT, the “remaining TGFBR2 mRNA” value (TGFBR2 mRNA [1]) was 0.87 and the “remaining TGFBR1 mRNA” value (TGFBR1 mRNA [2]) was 0.29.

With AGGUUGUGGGCAAAGAUGUTT the “remaining TGFBR2 mRNA” value (TGFBR2 mRNA [1]) was 0.83 and the “remaining TGFBR1 mRNA” value (TGFBR1 mRNA [2]) was 0.92.

UCCUUGGUGUAUUCUAACATT was tested, and the “remaining TGFBR2 mRNA” value (TGFBR2 mRNA [1]) was 0.42 and the “remaining TGFBR1 mRNA” value (TGFBR1 mRNA [2]) was 0.93.

In the case of UUGUAAAAACCAGGCGACCTT, the “remaining TGFBR2 mRNA” value (TGFBR2 mRNA [1]) is reported as 0.33 and the “remaining TGFBR1 mRNA” value (TGFBR1 mRNA [2]) is reported as 1.48.

For AAUUGGCUCCACAGUCUUUTT, the “remaining TGFBR2 mRNA” value (TGFBR2 mRNA [1]) was 0.44 and the “remaining TGFBR1 mRNA” value (TGFBR1 mRNA [2]) was 1.23.

In the case of AGGAUCAGCAGCCCGUAGCTT, the “remaining TGFBR1 mRNA” value (TGFBR1 mRNA [3]) is reported as 1.52 and the “remaining TGFBR2 mRNA” value (TGFBR2 mRNA [4]) is reported as 0.72.

In the case of CUGACCAUGCAGAGGAUGATT, the “remaining TGFBR2 mRNA” value (TGFBR2 mRNA [1]) is reported as 0.82 and the “remaining TGFBR1 mRNA” value (TGFBR1 mRNA [2]) is reported as 0.83.

In the case of ACCAUGUCGGCCUUUUCAATT, the “remaining TGFBR2 mRNA” value (TGFBR2 mRNA [1]) is reported as 0.5 and the “remaining TGFBR1 mRNA” value (TGFBR1 mRNA [2]) is reported as 0.35.

In the case of ACCUUACCUUGUCGACGAATT, the “remaining TGFBR2 mRNA” value (TGFBR2 mRNA [1]) is reported as 0.56 and the “remaining TGFBR1 mRNA” value (TGFBR1 mRNA [2]) is reported as 0.7.

For AUGCUCCCUCUCAUACUCUTT, the “remaining TGFBR2 mRNA” value (TGFBR2 mRNA [1]) was 0.39 and the “remaining TGFBR1 mRNA” value (TGFBR1 mRNA [2]) was 0.9.

In the case of GAGUGACCUGCUCCUCUAATT, the “remaining TGFBR2 mRNA” value (TGFBR2 mRNA [1]) is reported as 0.61 and the “remaining TGFBR1 mRNA” value (TGFBR1 mRNA [2]) is reported as 1.01.

In the case of UUCCUUGGCUGUGAUGCUCTT, the “remaining TGFBR2 mRNA” value (TGFBR2 mRNA [1]) is reported as 0.11 and the “remaining TGFBR1 mRNA” value (TGFBR1 mRNA [2]) is reported as 0.93.

For AUCUACACACACGCAAGAATT, the “remaining TGFBR2 mRNA” value (TGFBR2 mRNA [1]) was 0.73 and the “remaining TGFBR1 mRNA” value (TGFBR1 mRNA [2]) was 1.48.
